Assays:
[1] = target: Insulin-like growth factor 1 receptor (Homo sapiens, UniProt P08069); assay: Inhibition of IGF1R by HTRF assay
[2] = target: Fibroblast growth factor receptor 1 (Homo sapiens, UniProt P11362); assay: Inhibition of FGFRK
[3] = target: RAC-alpha serine/threonine-protein kinase (Homo sapiens, UniProt P31749); assay: Inhibition of PKBalpha
[4] = target: Serine/threonine-protein kinase pim-2 (Homo sapiens, UniProt Q9P1W9); assay: Inhibition of PIM2
[5] = target: Ribosomal protein S6 kinase beta-1 (Homo sapiens, UniProt P23443); assay: Inhibition of p70S6K
Aurora kinase A = Aurora kinase A (Homo sapiens, UniProt O14965); assay: Inhibition of aurora-1
[6] = target: Mast/stem cell growth factor receptor Kit (Homo sapiens, UniProt P10721); assay: Inhibition of c-KIT
[7] = target: Mitogen-activated protein kinase 3 (Homo sapiens, UniProt P27361); assay: Inhibition of ERK1
[8] = target: RAC-beta serine/threonine-protein kinase (Homo sapiens, UniProt P31751); assay: Inhibition of PKBbeta
[9] = target: Tyrosine-protein kinase JAK1 (Homo sapiens, UniProt P23458); assay: Inhibition of JAK1
[10] = target: Ribosomal protein S6 kinase alpha-5 (Homo sapiens, UniProt O75582); assay: Inhibition of MSK1
[11] = target: Tyrosine-protein kinase JAK2 (Homo sapiens, UniProt O60674); assay: Inhibition of JAK2
[12] = target: Tyrosine-protein kinase JAK3 (Homo sapiens, UniProt P52333); assay: Inhibition of JAK3
[13] = target: Serine/threonine-protein kinase pim-1 (Homo sapiens, UniProt P11309); assay: Inhibition of PIM1
Angiopoietin-1 receptor = Angiopoietin-1 receptor (Homo sapiens, UniProt Q02763); assay: Inhibition of TIE2
[14] = target: Mitogen-activated protein kinase 14 (Homo sapiens, UniProt Q16539); assay: Inhibition of p38alpha
[15] = target: Vascular endothelial growth factor receptor 2 (Homo sapiens, UniProt P35968); assay: Inhibition of VEGFR2 by HTRF assay
[16] = target: Hepatocyte growth factor receptor (Homo sapiens, UniProt P08581)
Description: Inhibition of c-Met by HTRF assay

[17] = target: Proto-oncogene tyrosine-protein kinase receptor Ret (Homo sapiens, UniProt P07949); assay: Inhibition of RET
[18] = target: Cyclin-dependent kinase 5/CDK5 activator 1 (Homo sapiens, UniProt Q00535)
[19] = target: cAMP-dependent protein kinase catalytic subunit alpha (Homo sapiens, UniProt P17612); assay: Inhibition of PKAalpha
[20] = target: Macrophage-stimulating protein receptor (Homo sapiens, UniProt Q04912); assay: Inhibition of RON by HTRF assay
[21] = target: Mitogen-activated protein kinase 9 (Homo sapiens, UniProt P45984); assay: Inhibition of JNK2

## CC[C@H](O)Cn1c(C)c(C(=O)Nc2ccc(Oc3ccnc4cc(OC)ccc34)c(F)c2)c(=O)n1-c1ccccc1
[1]
  Ki: 575 nM

## COc1cc2nccc(Oc3ccc(NC(=O)c4c(C)n(C)n(-c5ccccc5)c4=O)cc3F)c2cc1OC
[2]
  IC50: 1000 nM
[3]
  IC50: 10000 nM
[4]
  IC50: 25000 nM
[5]
  IC50: 1000 nM
Aurora kinase A
  IC50: 1000 nM
[6]
  IC50: 100 nM
[7]
  IC50: 25000 nM
[8]
  IC50: 25000 nM
[9]
  IC50: 10000 nM
[10]
  IC50: 10000 nM
[11]
  IC50: 1000 nM
[12]
  IC50: 10000 nM
[13]
  IC50: 25000 nM
Angiopoietin-1 receptor
  IC50: 100 nM
[14]
  IC50: 1000 nM

## COc1cc2nccc(Oc3ccc(NC(=O)c4c(C)n(C)n(-c5ccccc5)c4=O)cc3F)c2cc1Br
[1]
  Ki: 149 nM
[15]
  Ki: 78.9 nM

## COc1cc2nccc(Oc3ccc(NC(=O)c4c(C)n(C)n(-c5ccccc5)c4=O)cc3F)c2cc1C
[1]
  Ki: 146 nM

## CCc1cc2c(Oc3ccc(NC(=O)c4c(C)n(C)n(-c5ccccc5)c4=O)cc3F)ccnc2cc1OC
[1]
  Ki: 70.2 nM

## COc1cc2nccc(Oc3ccc(NC(=O)c4c(C)n(C)n(-c5ccccc5)c4=O)cn3)c2cc1OC
[1]
  Ki: 1570 nM

## COc1cc2nccc(Oc3ccc(NC(=O)c4c(C)n(C)n(-c5ccccc5)c4=O)c(Cl)c3)c2cc1OC
[1]
  Ki: 26.5 nM
[15]
  Ki: 35.9 nM

## COc1ccc2c(Oc3ccc(NC(=O)c4c(C)n(C)n(-c5ccccc5)c4=O)c(OC)c3)ccnc2c1
[1]
  Ki: 93.6 nM
[15]
  Ki: 702 nM

## COc1cc2nccc(Oc3ccc(NC(=O)c4c(C)n(C)n(-c5ccccc5)c4=O)nc3)c2cc1OC
[1]
  Ki: 233 nM

## COc1ccc2c(Oc3ccc(NC(=O)c4c(C)n(C)n(-c5ccccc5)c4=O)nc3)ccnc2c1
[1]
  Ki: 618 nM

## COc1ccc2c(Oc3cnc(NC(=O)c4c(C)n(C)n(-c5ccccc5)c4=O)nc3)ccnc2c1
[16]
  Ki: 16.7 nM
[1]
  Ki: 217 nM
[15]
  Ki: 1630 nM

## COc1ccc2c(Oc3ccc(NC(=O)c4c(CN)n(C)n(-c5ccccc5)c4=O)cc3F)ccnc2c1
[1]
  Ki: 928 nM
[15]
  Ki: 541 nM

## COc1ccc2c(Oc3ccc(NC(=O)c4c(CNC(=O)OC(C)(C)C)n(C)n(-c5ccccc5)c4=O)cc3F)ccnc2c1
[1]
  Ki: > 6600 nM

## CCN(C)Cc1c(C(=O)Nc2ccc(Oc3ccnc4cc(OC)ccc34)c(F)c2)c(=O)n(-c2ccccc2)n1C
[1]
  Ki: 744 nM

## COc1ccc2c(Oc3ccc(NC(=O)c4c(CN5CCCC5)n(C)n(-c5ccccc5)c4=O)cc3F)ccnc2c1
[1]
  Ki: 1800 nM

## COc1ccc2c(Oc3ccc(NC(=O)c4c(CN5CCCC5)n(C)n(-c5ccccc5)c4=O)nc3)ccnc2c1
[1]
  Ki: 887 nM

## COc1ccc2c(Oc3ccc(NC(=O)c4c(C(C)(C)N)n(C)n(-c5ccccc5)c4=O)cc3F)ccnc2c1
[1]
  Ki: 3100 nM

## COc1ccc2c(Oc3ccc(NC(=O)c4c([C@@H]5CCCN5)n(C)n(-c5ccccc5)c4=O)cc3F)ccnc2c1
[1]
  Ki: 680 nM
[15]
  Ki: 2240 nM

## COc1ccc2c(Oc3ccc(NC(=O)c4c([C@@H]5CCCN5)n(C)n(-c5ccccc5)c4=O)nc3)ccnc2c1
[1]
  Ki: 948 nM
[15]
  Ki: > 6600 nM

## COc1ccc2c(Oc3ccc(NC(=O)c4c(C5CCOCC5)n(C)n(-c5ccccc5)c4=O)cc3F)ccnc2c1
[1]
  Ki: 144 nM

## COc1ccc2c(Oc3ccc(NC(=O)c4c(C5CCOCC5)n(C)n(-c5ccccc5)c4=O)nc3)ccnc2c1
[1]
  Ki: 42.7 nM
[15]
  Ki: 2720 nM

## COc1ccc2c(Oc3ccc(NC(=O)c4c(-c5ccncc5)n(C)n(-c5ccccc5)c4=O)nc3)ccnc2c1
[1]
  Ki: 35.9 nM
[15]
  Ki: > 6600 nM

## COc1ccc2c(Oc3ccc(NC(=O)c4c(-c5ccccn5)n(C)n(-c5ccccc5)c4=O)nc3)ccnc2c1
[1]
  Ki: 18.5 nM
[15]
  Ki: 1380 nM

## COc1ccc2c(Oc3ccc(NC(=O)c4c(-c5cccnc5)n(C)n(-c5ccccc5)c4=O)nc3)ccnc2c1
[1]
  Ki: 27 nM
[15]
  Ki: 2830 nM

## COc1ccc2c(Oc3ccc(NC(=O)c4c(-c5cnccn5)n(C)n(-c5ccccc5)c4=O)nc3)ccnc2c1
[1]
  Ki: 87.7 nM
[15]
  Ki: 4730 nM

## COc1ccc2c(Oc3ccc(NC(=O)c4c(-c5cc(C)on5)n(C)n(-c5ccccc5)c4=O)nc3)ccnc2c1
[1]
  Ki: 30.9 nM
[15]
  Ki: 501 nM

## COc1ccc2c(Oc3ccc(NC(=O)c4c(-c5csc(C)n5)n(C)n(-c5ccccc5)c4=O)nc3)ccnc2c1
[1]
  Ki: 24.8 nM
[15]
  Ki: 588 nM

## CCn1c(C)c(C(=O)Nc2ccc(Oc3ccnc4cc(OC)ccc34)c(F)c2)c(=O)n1-c1ccccc1
[1]
  Ki: 557 nM

## CCn1c(C)c(C(=O)Nc2ccc(Oc3ccnc4cc(OC)ccc34)cn2)c(=O)n1-c1ccccc1
[1]
  Ki: 708 nM

## CCCn1c(C)c(C(=O)Nc2ccc(Oc3ccnc4cc(OC)ccc34)cn2)c(=O)n1-c1ccccc1
[1]
  Ki: 730 nM

## C=C(C)Cn1c(C)c(C(=O)Nc2ccc(Oc3ccnc4cc(OC)ccc34)c(F)c2)c(=O)n1-c1ccccc1
[1]
  Ki: 249 nM

## COc1ccc2c(Oc3ccc(NC(=O)c4c(C)n(CCN)n(-c5ccccc5)c4=O)cc3F)ccnc2c1
[1]
  Ki: 872 nM

## COc1ccc2c(Oc3ccc(NC(=O)c4c(C)n(CCO)n(-c5ccccc5)c4=O)cc3F)ccnc2c1
[1]
  Ki: 864 nM

## COc1ccc2c(Oc3ccc(NC(=O)c4c(C)n(CCO)n(-c5ccccc5)c4=O)nc3)ccnc2c1
[1]
  Ki: 1100 nM

## COCCn1c(C)c(C(=O)Nc2ccc(Oc3ccnc4cc(OC)ccc34)cn2)c(=O)n1-c1ccccc1
[1]
  Ki: 2890 nM

## COc1ccc2c(Oc3ccc(NC(=O)c4c(C)n(CC(C)O)n(-c5ccccc5)c4=O)nc3)ccnc2c1 (stereo unspecified)
[1]
  Ki: 1290 nM

## COc1ccc2c(Oc3ccc(NC(=O)c4c(C)n(CC(O)C(C)C)n(-c5ccccc5)c4=O)cc3F)ccnc2c1 (stereo unspecified)
[1]
  Ki: 637 nM

## COc1ccc2c(Oc3ccc(NC(=O)c4c(C)n(CC(O)CN)n(-c5ccccc5)c4=O)cc3F)ccnc2c1 (stereo unspecified)
[1]
  Ki: 104 nM

## COc1ccc2c(Oc3ccc(NC(=O)c4c(C)n(CC5CNC(=O)O5)n(-c5ccccc5)c4=O)cc3F)ccnc2c1 (stereo unspecified)
[1]
  Ki: 1660 nM

## COc1ccc2c(Oc3ccc(NC(=O)c4c(C)n(CC(C)(C)O)n(-c5ccccc5)c4=O)cc3F)ccnc2c1
[1]
  Ki: 887 nM

## COc1ccc2c(Oc3ccc(NC(=O)c4c(C)n(CC(C)C)n(-c5ccccc5)c4=O)cc3F)ccnc2c1
[1]
  Ki: 915 nM

## COc1ccc2c(Oc3ccc(NC(=O)c4c(C)n(C)n(-c5ccccc5)c4=O)cc3F)ccnc2c1
[1]
  Ki: 178 nM

## CCCn1c(C)c(C(=O)Nc2ccc(Oc3ccnc4cc(OC)ccc34)c(F)c2)c(=O)n1-c1ccccc1
[1]
  Ki: 419 nM

## COc1ccc2c(Oc3ccc(NC(=O)c4c(C)n(C[C@H](C)O)n(-c5ccccc5)c4=O)cc3F)ccnc2c1
[1]
  Ki: 695 nM

## COc1ccc2c(Oc3ccc(NC(=O)c4c(C)n(CC(C)(C)O)n(-c5ccccc5)c4=O)nc3)ccnc2c1
[17]
  IC50: 25000 nM
[16]
  IC50: 10 nM
  Ki: 1 nM
[2]
  IC50: 25000 nM
[3]
  IC50: 10000 nM
[4]
  IC50: 25000 nM
[18]
  IC50: 100000 nM
[5]
  IC50: 25000 nM
[19]
  IC50: 100000 nM
[6]
  IC50: 10000 nM
[7]
  IC50: 100000 nM
[20]
  IC50: 10 nM
[8]
  IC50: 25000 nM
[9]
  IC50: 25000 nM
[10]
  IC50: 100000 nM
[11]
  IC50: 25000 nM
[13]
  IC50: 25000 nM
[14]
  IC50: 100000 nM
[21]
  IC50: 100000 nM

## COc1ccc2c(Oc3ccc(NC(=O)c4c(C)n(C[C@@H](C)O)n(-c5ccccc5)c4=O)cc3F)ccnc2c1
[1]
  Ki: 744 nM

## COc1ccc2c(Oc3ccc(NC(=O)c4c(C5CCCO5)n(C)n(-c5ccccc5)c4=O)cc3F)ccnc2c1 (racemic)
[1]
  Ki: 190 nM

## COc1ccc2c(Oc3ccc(NC(=O)c4c(C5CCOC5)n(C)n(-c5ccccc5)c4=O)cc3F)ccnc2c1 (racemic)
[1]
  Ki: 250 nM

## COc1ccc2c(Oc3ccc(NC(=O)c4c(C)n(CC(C)O)n(-c5ccccc5)c4=O)cc3F)ccnc2c1 (racemic)
[1]
  Ki: 1330 nM

From ChEMBL document CHEMBL2029218, “Structure-based design of novel class II c-Met inhibitors: 2. SAR and kinase selectivity profiles of the pyrazolone series” (J Med Chem, 2012)
